Data taken from publication PMC5608804, “Stepwise Evolution Improves Identification of Diverse Peptides Binding to a Protein Target” (Scientific Reports, 2017).

Target: T1, streptavidin (Streptomyces avidinii, UniProt P22629)
T1 construct: purchased GE Healthcare (Little Chalfont, UK)
Test: Cy5-streptavidin binding on HotSpot discovery array, 5-mer L-peptide library
Settings: for S/B: signal to background ratio
How it was run: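 Array of 2,476,099 5-mer peptides (19 amino acids, no cysteine) with Gly-Ser linkers, probed overnight at 4 °C with 0.5 µg/ml Cy5-streptavidin in Tris pH 7.4 buffer containing casein or BSA plus Tween-20. Cy5 fluorescence read at 635 nm; peptides selected by signal-to-background >4 across three arrays.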

[1] = 5-mer L-peptide library array, Cy5-streptavidin, from average of three arrays
[2] = 5-mer L-peptide library array, Cy5-streptavidin, from the average of three arrays
[3] = average of three arrays, L-peptide 5-mer library
[4] = 5-mer L-peptide library, from the average of three arrays
[5] = 5-mer L-peptide library array, Cy5-streptavidin

T1 sequence (P22629 25-183): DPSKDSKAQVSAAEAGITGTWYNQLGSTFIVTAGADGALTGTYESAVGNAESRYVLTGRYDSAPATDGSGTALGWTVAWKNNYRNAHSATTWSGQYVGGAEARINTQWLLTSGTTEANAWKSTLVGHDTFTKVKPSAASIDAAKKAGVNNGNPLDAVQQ

## LVHPQ
[1]
  S/B (signal to background ratio): 129.9

## LWHPM
[2]
  S/B (signal to background ratio): 64.6

## LWHPQ
[1]
  S/B (signal to background ratio): 177.2

## LYHPQ
[1]
  S/B (signal to background ratio): 211.9

## MAAHF [L-amino acid 5-mer array peptide]
[1]
  S/B (signal to background ratio): 25.6
[3]
  S/B (signal to background ratio): 25.6

## MAFHF [L-amino acid 5-mer array peptide]
[4]
  S/B (signal to background ratio): 4.8
[3]
  S/B (signal to background ratio): 4.8

## MAHPQ
[1]
  S/B (signal to background ratio): 140.8

## MAKHF [L-amino acid 5-mer array peptide]
[3]
  S/B (signal to background ratio): 5.4
[5]
  S/B: 5.4

## MALHF [L-amino acid 5-mer array peptide]
[3]
  S/B (signal to background ratio): 8.0
[5]
  S/B: 8.0

## MAMHF [L-amino acid 5-mer array peptide]
[3]
  S/B (signal to background ratio): 17.9
[5]
  S/B: 17.9

## MANHF [L-amino acid 5-mer array peptide]
[3]
  S/B (signal to background ratio): 6.0
[5]
  S/B: 6.0

## MDHPQ
[2]
  S/B (signal to background ratio): 88.9

## MEHPM
[1]
  S/B (signal to background ratio): 23.4

## MFHPM
[2]
  S/B (signal to background ratio): 85.4

## MFHPQ
[1]
  S/B (signal to background ratio): 198.9

## MGHPQ
[1]
  S/B (signal to background ratio): 175.3

## MGNHF [L-amino acid 5-mer array peptide]
[4]
  S/B (signal to background ratio): 4.3
[3]
  S/B (signal to background ratio): 4.3

## MHHPQ
[1]
  S/B (signal to background ratio): 178.1

## MHPMA
[2]
  S/B (signal to background ratio): 62.7

## MHPMG
[1]
  S/B (signal to background ratio): 42.9

## MHPMI
[4]
  S/B (signal to background ratio): 4.7

## MHPMM
[5]
  S/B: 9.8

## MHPMR
[5]
  S/B: 10.8

## MHPMS
[1]
  S/B (signal to background ratio): 25.8

## MHPMV
[1]
  S/B (signal to background ratio): 20.7

## MHPMW
[4]
  S/B (signal to background ratio): 4.3

## MHPQA
[1]
  S/B (signal to background ratio): 138.1

## MHPQF
[2]
  S/B (signal to background ratio): 107.7

## MHPQG
[1]
  S/B (signal to background ratio): 122.9

## MHPQK
[5]
  S/B: 9.8

## MHPQN
[1]
  S/B (signal to background ratio): 120.0

## MHPQQ
[1]
  S/B (signal to background ratio): 29.0

## MHPQS
[2]
  S/B (signal to background ratio): 75.9

## MHPQV
[1]
  S/B (signal to background ratio): 55.8

## MIHPM
[1]
  S/B (signal to background ratio): 32.1

## MIHPQ
[2]
  S/B (signal to background ratio): 97.1

## MKHPM
[1]
  S/B (signal to background ratio): 20.4

## MKHPQ
[2]
  S/B (signal to background ratio): 84.7

## MLAHF [L-amino acid 5-mer array peptide]
[3]
  S/B (signal to background ratio): 7.2
[5]
  S/B: 7.2

## MLHPQ
[1]
  S/B (signal to background ratio): 136.4

## MMHPM
[1]
  S/B (signal to background ratio): 48.8

## MNHPQ
[1]
  S/B (signal to background ratio): 166.1

## MPGHF [L-amino acid 5-mer array peptide]
[3]
  S/B (signal to background ratio): 5.6
[5]
  S/B: 5.6

## MPHPM
[2]
  S/B (signal to background ratio): 58.7

## MPHPQ
[1]
  S/B (signal to background ratio): 180.4

## MPQHF
[4]
  S/B (signal to background ratio): 4.4

## MPWRN [L-amino acid 5-mer array peptide]
[3]
  S/B (signal to background ratio): 5.2
[5]
  S/B: 5.2

## MPWRY [L-amino acid 5-mer array peptide]
[4]
  S/B (signal to background ratio): 5.0
[3]
  S/B (signal to background ratio): 5.0

## MQHPM
[1]
  S/B (signal to background ratio): 43.9

## MQHPQ
[1]
  S/B (signal to background ratio): 157.5

## MRHPM
[2]
  S/B (signal to background ratio): 60.6

## MVAHF [L-amino acid 5-mer array peptide]
[3]
  S/B (signal to background ratio): 6.3
[5]
  S/B: 6.3

## MVHPM
[1]
  S/B (signal to background ratio): 33.8

## MVQHF [L-amino acid 5-mer array peptide]
[4]
  S/B (signal to background ratio): 5.2
[3]
  S/B (signal to background ratio): 5.2

## MWHPM
[2]
  S/B (signal to background ratio): 86.7

## MWHPQ
[1]
  S/B (signal to background ratio): 192.7

## MYHPM
[2]
  S/B (signal to background ratio): 89.3

## MYHPQ
[1]
  S/B (signal to background ratio): 182.6

## NAHPM
[1]
  S/B (signal to background ratio): 36.0

## NAHPQ
[1]
  S/B (signal to background ratio): 121.9

## NDHPM
[1]
  S/B (signal to background ratio): 32.0

## NEHPQ
[2]
  S/B (signal to background ratio): 58.6

## NGHPM
[1]
  S/B (signal to background ratio): 54.5

## NGHPQ
[1]
  S/B (signal to background ratio): 144.3

## NHHPQ
[1]
  S/B (signal to background ratio): 128.2

## NHPMA
[2]
  S/B (signal to background ratio): 59.8

## NHPMK
[4]
  S/B (signal to background ratio): 4.7

## NHPQA
[1]
  S/B (signal to background ratio): 121.8

## NHPQF
[2]
  S/B (signal to background ratio): 99.9

## NHPQG
[1]
  S/B (signal to background ratio): 118.8

## NHPQI
[1]
  S/B (signal to background ratio): 21.1

## NHPQK
[5]
  S/B: 14.8

## NHPQL
[4]
  S/B (signal to background ratio): 4.1

## NHPQM
[1]
  S/B (signal to background ratio): 39.3

## NHPQN
[1]
  S/B (signal to background ratio): 138.1

## NHPQQ
[1]
  S/B (signal to background ratio): 42.3

## NHPQS
[2]
  S/B (signal to background ratio): 70.7

## NHPQV
[2]
  S/B (signal to background ratio): 81.6

## NHPQW
[5]
  S/B: 16.4

## NIHPQ
[2]
  S/B (signal to background ratio): 100.3

## NKHPM
[1]
  S/B (signal to background ratio): 20.7

## NKHPQ
[2]
  S/B (signal to background ratio): 85.9

## NMHPQ
[1]
  S/B (signal to background ratio): 136.2

## NNHPQ
[1]
  S/B (signal to background ratio): 137.3

## NPHPM
[1]
  S/B (signal to background ratio): 40.3

## NQHPQ
[2]
  S/B (signal to background ratio): 107.5

## NRHPM
[1]
  S/B (signal to background ratio): 48.6

## NRHPQ
[2]
  S/B (signal to background ratio): 115.2

## NTHPQ
[1]
  S/B (signal to background ratio): 133.1

## NWDEI [L-amino acid 5-mer array peptide]
[3]
  S/B (signal to background ratio): 7.3
[5]
  S/B: 7.3

## NWDEW [L-amino acid 5-mer array peptide]
[3]
  S/B (signal to background ratio): 7.8
[5]
  S/B: 7.8

## NWDQV [L-amino acid 5-mer array peptide]
[4]
  S/B (signal to background ratio): 4.6
[3]
  S/B (signal to background ratio): 4.6

## NWDQW [L-amino acid 5-mer array peptide]
[3]
  S/B (signal to background ratio): 6.7
[5]
  S/B: 6.7

## NWDVI [L-amino acid 5-mer array peptide]
[3]
  S/B (signal to background ratio): 5.3
[5]
  S/B: 5.3

## NWEAI [L-amino acid 5-mer array peptide]
[4]
  S/B (signal to background ratio): 4.1
[3]
  S/B (signal to background ratio): 4.1

## NWEAV [L-amino acid 5-mer array peptide]
[4]
  S/B (signal to background ratio): 4.1
[3]
  S/B (signal to background ratio): 4.1

## NWHPM
[2]
  S/B (signal to background ratio): 84.8

## NWHPQ
[1]
  S/B (signal to background ratio): 184.8

## NYHPM
[1]
  S/B (signal to background ratio): 52.9

## NYHPQ
[1]
  S/B (signal to background ratio): 182.7

## PAHPQ
[1]
  S/B (signal to background ratio): 124.5

## PAWAH [L-amino acid 5-mer array peptide]
[1]
  S/B (signal to background ratio): 50.0
[3]
  S/B (signal to background ratio): 50.0

## PAWGH [L-amino acid 5-mer array peptide]
[3]
  S/B (signal to background ratio): 11.9
[5]
  S/B: 11.9

## PDHPM
[1]
  S/B (signal to background ratio): 23.4

## PDHPQ
[2]
  S/B (signal to background ratio): 72.7

## PFHPQ
[1]
  S/B (signal to background ratio): 193.0

## PGHPQ
[1]
  S/B (signal to background ratio): 168.5

## PGWAH [L-amino acid 5-mer array peptide]
[4]
  S/B (signal to background ratio): 4.8
[3]
  S/B (signal to background ratio): 4.8

## PHHPQ
[1]
  S/B (signal to background ratio): 140.8

## PHPMF
[5]
  S/B: 10.9

## PHPMH
[5]
  S/B: 8.8

## PHPMN
[5]
  S/B: 14.3

## PHPMS
[1]
  S/B (signal to background ratio): 30.6

## PHPMV
[1]
  S/B (signal to background ratio): 24.7

## PHPMW
[4]
  S/B (signal to background ratio): 5.2

## PHPMY
[5]
  S/B: 12.1

## PHPQA
[1]
  S/B (signal to background ratio): 128.7

## PHPQD
[5]
  S/B: 15.6

## PHPQF
[2]
  S/B (signal to background ratio): 98.8

## PHPQI
[1]
  S/B (signal to background ratio): 22.5

## PHPQK
[5]
  S/B: 14.7

## PHPQN
[1]
  S/B (signal to background ratio): 138.6

## PHPQQ
[1]
  S/B (signal to background ratio): 53.1

## PHPQS
[2]
  S/B (signal to background ratio): 95.0

## PHPQT
[1]
  S/B (signal to background ratio): 24.1

## PHPQV
[2]
  S/B (signal to background ratio): 97.2

## PHPQW
[1]
  S/B (signal to background ratio): 23.8

## PHPQY
[1]
  S/B (signal to background ratio): 41.4
